US20260286322A1, “PROTEIN TYROSINE P[…] DOMAIN PEPTIDE DIMER FOR NERVOUS SYSTEM REPAIR” (NervGen Pharma Corp., priority 2023, published 2026)

Columns and labels:
[1] = Body weights of SCI rats during treatment; assay type: in vivo, rat; details: SCI rats vs saline control, measured until the 13th week
Description: Adult, female Lewis rats (~160 g on arrival) from Envigo were used as the subjects receiving the treatment in the study. The rats were assigned unique identification numbers (PGI ID and tail marks) and housed in ventilated cages. All rats were examined, handled, and weighed prior to initiation of the study to assure adequate health and suitability. During the course of the study, 12/12 light/dark cycles were maintained. The room temperature was maintained between […] and 23° C. with a relative humidity maintained around 50%. Chow and water were provided adlibitum for the duration of the study. The rats were randomly assigned across treatment groups. Body weights were taken twice a week during the study.
(§1) Lyophilized Compound 8 was dissolved in saline and injected s.c. at a volume of 500 μl to animal once daily from day 1-day 49 post spinal cord injury.
(§2) The dose concentration was 0.8 mg/ml, corresponding to 400 μg/rat. After reconstitutions, the solution was aliquoted and kept at −20° C. until dosing.
Body weights were taken twice a week for the first 7 weeks after injury and then weekly until endpoint. Health and survival of the animals was evaluated during bladder expressions, body weight and behavioral test, any health concerns were reported and discussed with a veterinarian if needed.

[2] = tested on: rat model of thoracic traumatic Spinal Cord Injury (SCI); assay: Bladder function, bladder score and urinary complications in SCI rats; assay type: in vivo
Description: as §1, §2
Spinal cord injury (SCI) was introduced to the rats by surgery using the Infinite Horizon (IH) Impactor (200 kDyn force) described by Scheff et al. 2003. The surgery was performed with aseptic procedures in a designated area under deep anesthesia. Rats were anesthetized with isoflurane (4% for induction, 2% for maintenance), and O2 (300 cm^3/min) mixture. Hair was removed from the surgical site with clippers and the skin wase scrubbed with an antiseptic detergent. To maintain body temperature the animals were placed upon a homoeothermic blanket system. The T8 Vertebra of the rat was located externally, and an incision was made exposing the vertebral column from T6-T11. A laminectomy was performed using a surgical microscope to expose the dorsal spinal cord at the thoracic (T8) vertebral level. The vertebral column was stabilized by clamping the nearest rostral and caudal vertebral processes and the injury was produced using the IH impactor device at a 200 kDyn force. After each lesion the IH graphs and impact data were reviewed and recorded, rats presenting an impact force more than 10% higher or lower than expected and/or any abnormality on the force/displacement impact graphs were excluded from the study. Additionally, animals scoring more than 1 points in the Basso, Beattie and Bresnahan (BBB) score scale at 1 days after SCI were excluded for the study as well.
Starting the day after lesion animals were observed twice a day and bladders were manually expressed using gentle abdominal pressure. Any abnormal appearance of the urine (i.e. cloudy urine, bloody urine) was recorded, and the size of the bladder estimated by trained researchers in order to obtain a categorical score (bladder score) (empty bladders=0; extra-small bladders=1; small bladders=2, medium bladders=3, large bladders=4). Urinary complications (bloody urine, foul-smelling urine, urine-stained fur) were reported and treated with SC fluids twice a day, and antibiotic treatment if the issues persisted. Bladder expression continue until spontaneous voiding was observed (empty bladder for 3 consecutive days).
During bladder expressions the size of each bladder was estimated by trained researchers and a semi-quantitative score was obtained. Daily estimates of urine retention were obtained by adding the bladder size scores of AM and PM bladder expressions. FIG. 5 illustrates the weekly average of urine retention in the rats in the testing group that were treated with Compound 8 in saline, compared to the rats in control group that were treated with vehicle control (saline).
Urinary complications including bloody urine, foul-smelling urine, and urine-stained fur were monitored. When a new complication was observed after resolutions of a previous event, it was considered repetitive. Animals would be euthanized if the complications persisted after an additional cycle of antibiotics, when bladders could not be expressed or when general health deterioration was observed.
Urinary complications, such as repetitive bloody urine, urine-stained fur and urinary infections were observed, recorded, and treated, as needed.
In this study, the effects of Compound 8 in improving the recovery of open field locomotor performance and bladder function in the SCI rats were further evaluated in comparison with Compound 4 by assessing the BBB scores and bladder scores according to the methods described in Example 3.
In this assessment, 12-13 rats were included in each of the following groups (1) Control group 1: SCI+saline alone; (2) Control group 2: SCI+Compound 4 in saline; (3) Testing group: SCI+Compound 8. […]

SCI rats = assay: BBB sub-score (toe clearance, paw position, trunk stability, tail position) in SCI rats; assay type: in vivo, rat
Description: Animals were prepared according to the methods described above in Example 3.
Lyophilized Compound 8 and Compound 4 were separately dissolved in saline and injected s.c. at a volume of 500 μl to animal once daily from day 1-day 49 post spinal cord injury.
The target dose concentration was 0.8 mg/ml. After reconstitutions, the solutions were aliquoted and kept at −20° C. until dosing.
12-13 rats were used in each of the following three groups: • 1) Control group: SCI+saline alone • 2) Testing group: SCI+Compound 4 in saline • 3) Testing group: SCI+Compound 8 in saline.
Spinal cord injury (SCI) was introduced to the animals and post-operative care was provided to the animals according to the methods described in Example 3.
The BBB sub-scores quantify the recovery of toe clearance, paw position, trunk stability and tail use independent of forelimb-hindlimb coordination. BBB sub-scores were calculated using the observations recorded in the BBB records sheets. During BBB testing, the predominant position of the hind paws (parallel vs rotated), toe clearance, trunk stability and tail position (up, down, middle) were evaluated for animals reaching a BBB score of 10 or higher. Animals scoring less than 10 in BBB scale were considered to have BBB sub-score of “0”.
As described above in Example 3, the upper points on the BBB scale (14-21) quantify fine motor movements associated with hind limb locomotor including toe clearance, predominant paw position, trunk stability, and tail position. These fine motor movements are only considered if animals display consistent coordination. A BBB sub-score was applied to quantify these improvements independent of coordination.
FIG. 8B depicts violin plots presenting distributions of the weekly average BBB sub-scores in the saline alone, Compound 4, and Compound 8 treatment cohorts of SCI rats. Each data point represents a weekly average BBB sub-score in the saline alone (control), Compound 4, and Compound 8 treatment cohorts as annotated on the X-axis. The numbers adjacent to the data points indicate the numbers of days post-SCI at which individual and treatment cohort weekly average BBB sub-scores were calculated. Statistical comparison of the treatment effects was performed using Friedman's test (repeated measures ANOVA for nonparametric values) with Dunn's correction for multiple comparisons and p-value of less than 0.05 defined as the criterion of statistical significance.

Substance: TAT-Cys-rodent PTPRS wedge domain homodimer [Compound 8]
- effect on body weights [1]: no adverse effects on body weights
- average weekly bladder scores compared with Compound 4 or saline alone ([2]; RM ANOVA, Tukey, p=0.0001 vs saline, p=0.0085 vs Compound 4): significantly lower
- Euthanasia due to Urinary Complications ([2]; during the course of the study): none
- Repetitive Urinary Complications (animals) ([2]; during the course of the study): 1 out of 13
- Repetitive Urinary Complications (percentage) ([2]; during the course of the study): 8%
- Urinary Complications (animals) ([2]; during the course of the study): 4 out of 13
- Urinary Complications (percentage) ([2]; during the course of the study): 31%
- percentage of rats with bladder scores of 2 or better ([2]; during weeks 10 to 13): more than 40%
- estimated size of bladders ([2]; evident from week 8 to 13): decrease in the estimated size of bladders
- percentage of rats with bladder scores of 2 or better ([2]; starting on week 6 post-SCI): About 25%
- frequency of urinary complications compared with vehicle control ([2]; vs rats receiving vehicle control): less frequent
- urine retention (weekly average of estimated bladder size scores) ([2]; vs vehicle control, trend noticeable starting at week 4 after SCI): less urine retention
- sustained trend of continued functional improvement in BBB sub-score (SCI rats; FIG. 8A): apparent
- effect on weekly average BBB sub-score vs saline alone (SCI rats; Friedman's test, Dunn's correction, p=0.0008 Compound 8, p>0.9999 Compound 4): statistically significant effect
- effect on weekly average BBB sub-score vs Compound 4 (SCI rats; Friedman's test, Dunn's correction, p=0.0201): statistically significant effect
- functional improvement (BBB sub-score achievers) after discontinuation of administration (SCI rats; after day 49): continued functional improvement
- onset of functional improvement in BBB sub-score (SCI rats; day post-SCI, 0.8 mg/ml, 500 μl s.c. once daily day 1-49): 21 days
- percentage of rats achieving BBB sub-score of 1 or better, compared with Compound 4 or saline alone groups (SCI rats; each time point post-SCI, e.g. day 28, 42, 63, 70, 77, 84): higher
